Patent US8049063B2 (Zhejiang University, priority 2005, dated 2011)

Columns and labels:
8077S calli = format: cell-based, rice
From the text: FIG. 6. Bensulfuron-methyl selection results of Cyp81A6-transformed 8077S calli. Left: transgenic; right: non-transgenic control.
(§1) The full length sequence of candidate gene Cyp81A6 was obtained through lump-sum amplification using LA TaqTM polymerase reagent kit purchased from Takara Company. The long fragment PCR specific primer pairs (forward primer: 5′-[…]-3′ (SEQ ID NO: 40); reverse primer: 5″-[…]-3′ (SEQ ID NO: 41), synthesized by Shanghai Sangon) used in this experiment were designated at a start from 124 bp before and end with 4145 bp after BamHI enzyme digestion site located at 5′-end of Cyp81A6 gene, respectively, according to the DNA sequence publicized by indica rice genome database. According to the designing, these primers have a BstEII enzyme cutting site attached to the 3′-end of the primers, which is convenient for production of cohesive end and ligation during cloning. The amplified fragment with the total size of […] by this pair of primers is consisted of those parts: 124 bp upstream sequence of the BamHI digestion site, 1321 bp promoter sequence, 2321 bp sequence of leader region plus exon plus intron , 272 bp 3′-UTR sequence, followed by 288 bp genome sequence (including the 7 bp BstEII recognition site and 5 bp protection base). […]

[1] = test system: Cyp81A6 transgenic 8077S plants; test: Bentazon test of Cyp81A6 transgenic 8077S seedlings (complementation); format: in vivo, rice
From the text: FIG. 7. […] Left: negative control of 8077S; middle: transgenic seedling; right: positive control of W6154S.
as §1

[2] = test system: Cyp81A6 antisense RNA transformed Minghui 63 plants; test: Bentazon leaf smear test of Cyp81A6 antisense RNA transformed Minghui 63 plants; format: in vivo, rice; settings: 1250 mg/L smeared on leaves, 3 leaves/plant; antisense transgenic Minghui 63; 36 hours later
From the text: Design anti-sense RNA (RNAi) sequences (see the 1939th to 2439th nucleotide sequence of SEQ ID NO.1) in according with the coding sequence of the cloned rice Cyp81A6 gene. Fuse these antisense RNA (RNAi) sequence to the rice constitutive expression promoter such as Actin1 and then insert them into the binary vectors of pAANT11 (see FIG. 16). Use this vector to transform wild-type rice such as Minghui 63 using the modified procedures of Agrobacterium-mediated transformation method. After that, use the specific primers to carry on the PCR amplification analysis of transgenic TO generation plants for molecular confirmation.

Structure (SMILES)	growth of non-transgenic calli on herbicide medium (8077S calli)	response of PCR-positive Cyp81A6 transformants to bentazon ([1]; 1250 mg/l, regenerated transgenic 8077S plantlets)	resistance of transgenic line carrying the entire CYP81A6 sequence ([1]; 8077S mutant genome transformed with entire CYP81A6 gene)	outcome of treated leaves and plants [2]
COC(=O)c1ccccc1CS(=O)(=O)NC(=O)Nc1nc(OC)cc(OC)n1 [BSM, bensulfuron-methyl]	stop to grow	–	–	–
CC(C)N1C(=O)c2ccccc2NS1(=O)=O [bentazon]	–	recovered the resistance	highly resistant	faded and died
